Reference: patent US20070254055A1, “Therapeutic Avenanthramide Compounds” (TRUSTEES OF TUFTS COLLEGE, priority 2003, published 2007)

Test system: COX-2
Assay: TNF-α induced COX-2 expression in HT29 cells, Western blot
Assay type: cell-based, human
Conditions: 25 μM
Method: Western Blot Assay: HT-29 cells were seeded into 60 mm culture dishes and cultured to 70% confluence. Medium was changed from 10% to 1% FBS medium to minimize the effects of other growth-promoting substances normally contained in serum. For COX-2 expression studies, the cells were pre-treated with different concentrations of Avns oat extract and CH3-Avn-C for 1 hr followed by stimulation with 40 ng/ml of TNF-α for 23 hr. The medium was collected and kept at −80° C. for further analyzing prostaglandin E2 (PGE2) production. For analyzing the NFkB phosphorylation, the cells were pre-treated with different concentrations of Avns oat extract and CH3-Avn-C for 23 hr followed by stimulation with 40 ng/ml of TNF-α for 20 min. For determining the COX1 expression level, the cells were treated with different concentrations of Avns oat extract and CH3-Avn-C for 24 hr. To get the whole cell lysate for western, cells were harvested in 2× protein sample buffer by scraping the cells. […] Proteins bound to the primary antibodies were detected by the enhanced chemiluminescence (ECL) detection system and quantified by densitometric scanning.
Effect of Avns on COX-2 expression: HT29 cells express a low basal level of COX-2 protein. […] The expression of COX2 was measured by Western blotting. β-Actin expression level was used as a loading control. […]

SMILES: CS(=O)(=O)Nc1ccc([N+](=O)[O-])cc1OC1CCCCC1 [NS398]
- inhibition of COX2 expression: 50%
